According to US20040248887A1, “Inhibitors of cathepsin S” (IRM LLC, priority 2003, published 2004):

Molecular target: Cathepsin S (Homo sapiens, UniProt P25774)
Experiment: Cathepsin S inhibition, fluorogenic peptide substrate kinetic assay
Format: biochemical
Conditions: Table II; Cathepsin S inhibition constant, pH5.5; read-out: Ki Cat. S
In short: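 Reactions were started with 50 μM (final) acetyl-His-Pro-Val-Lys-aminocarbamoylcoumarin, and hydrolysis was followed by fluorescence (ex 380/em 450 nm). Apparent inhibition constants from enzyme progress curves were converted to Ki for competitive inhibitors using substrate concentration and Km.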

Sequence of Cathepsin S (P25774 115-331, species assumed): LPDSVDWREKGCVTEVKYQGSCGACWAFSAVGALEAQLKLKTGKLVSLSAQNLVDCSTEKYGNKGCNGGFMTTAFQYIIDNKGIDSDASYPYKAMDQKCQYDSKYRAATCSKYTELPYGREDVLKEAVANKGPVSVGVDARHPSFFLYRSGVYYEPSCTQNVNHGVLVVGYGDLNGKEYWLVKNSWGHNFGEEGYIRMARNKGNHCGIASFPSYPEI

| Ki [nM] | Structure (SMILES) |
| --- | --- |
| < 100 | O=C(N[C@@H](CC1CCCCC1)C(=O)NCCN1CCc2cc(F)ccc21)C1CC(=O)N(Cc2cccs2)C1 (stereo partly drawn) [Compound 73, 5-Oxo-1-thiophen-2-ylmethyl-pyrrolidine-3-carboxylic acid (S)-{2-cyclohexyl-1-[2-(5-fluoro-2,3-dihydro-indol-1-yl)-ethylcarbamoyl]-ethyl}-amide] |
| < 100 | C[C@@H](C(=O)N[C@@H](CCC1CCCCC1)C(=O)NCCN1CCc2cc(F)ccc21)c1ccccc1 [Compound 102, 4-Cyclohexyl-N-[2-(5-fluoro-2,3-dihydro-indol-1-yl)-ethyl]-2-(S)-(2-(R)-phenyl-propionylamino)-butyramide] |
| < 100 | C[C@@H](CNc1cccc(C#N)c1)NC(=O)[C@H](CC1CCCCC1)NC(=O)c1ccc(-c2cccc(F)c2)o1 [Compound 100, 5-(3-Fluoro-phenyl)-furan-2-carboxylic acid {1-(S)-[2-(3-cyano-phenylamino)-1-(S)-methyl-ethylcarbamoyl]-2-cyclohexyl-ethyl}-amide] |
| < 1000 | O=C(N[C@@H](CC1CCCCC1)C(=O)NCCN1CCc2cc(F)ccc21)C1CCN(S(=O)(=O)c2ccc(F)cc2)CC1 [Compound 66, 1-(4-Fluoro-benzenesulfonyl)-piperidine-4-carboxylic acid (S)-{2-cyclohexyl-1-[2-(5-fluoro-2,3-dihydro-indol-1-yl)-ethylcarbamoyl]-ethyl}-amide] |
| < 100 | C[C@@H](CNc1ccc(OC(F)(F)F)cc1)NC(=O)[C@H](CC1CCCCC1)NC(=O)OC1CCOCC1 [Compound 184, (S,S)-{2-Cyclohexyl-1-[1-methyl-2-(4-trifluoromethoxy-phenylamino)-ethylcarbamoyl]-ethyl}-carbamic acid tetrahydro-pyran-4-yl ester] |
| < 100 | C[C@@H](CNc1ccc(OC(F)F)cc1)NC(=O)[C@H](CC(C)(C)C)NC(=O)c1ccc(-c2cccc(F)c2)o1 [Compound 128, 5-(3-Fluoro-phenyl)-furan-2-carboxylic acid {1-(S)-[2-(4-difluoromethoxy-phenylamino)-1-(S)-methyl-ethylcarbamoyl]-3,3-dimethyl-butyl}-amide] |
| < 100 | COc1cccc(C(=O)N[C@@H](CC2CCCCC2)C(=O)N[C@@H](CO)CN2CCc3cc(F)ccc32)c1 [Compound 150, N-{2-Cyclohexyl-1-(S)-[2-(5-fluoro-2,3-dihydro-indol-1-yl)-1-(R)-hydroxymethyl-ethylcarbamoyl]-ethyl}-3-methoxy-benzamide] |
| < 100 | C[C@@H](C(=O)N[C@@H](CC1CCCCC1)C(=O)NCCN1CCc2cc(F)ccc21)c1ccccc1 [Compound 70, N-{2-cyclohexyl-1-(S)-[2-(5-fluoro-2,3-dihydro-indol-1-yl)-ethylcarbamoyl]-ethyl}-2-(R)-phenyl-propionamide] |
| < 10000 | COc1ccc(NC(C)CNC(=O)[C@H](CC(C)C)NC(=O)c2cccc(C)c2)cc1 (mixture of isomers) [Compound 20, N-{1-(S)-[2-(4-Methoxy-phenylamino)-propylcarbamoyl]-3-methyl-butyl}-3-methyl-benzamide] |
| < 1000 | O=C(N[C@@H](CC1CCCCC1)C(=O)NCCN1CCc2cc(F)ccc21)c1ccc(OC2CCNCC2)cc1 [Compound 67, N-(S)-{2-cyclohexyl-1-[2-(5-fluoro-2,3-dihydro-indol-1-yl)-ethylcarbamoyl]-ethyl}-4-(piperidin-4-yloxy)-benzamide] |
| < 100 | Cc1cccc(C(=O)N[C@@H](CC(C)C)C(=O)N[C@@H](CCC(=O)OCc2ccccc2)CN2CCc3cc(F)ccc32)c1 [Compound 42, (S,S)-5-(5-Fluoro-2,3-dihydro-indol-1-yl)-4-[4-methyl-2-(3-methyl-benzoylamino)-pentanoylamino]-pentanoic acid benzyl ester] |
| < 100 | CC(C(=O)N[C@@H](CC1CCCCC1)C(=O)NCCN1CCc2cc(F)ccc21)c1ccc(Cl)cc1 (stereo partly drawn) [Compound 64, 2-(4-Chloro-phenyl)-N-{2-cyclohexyl-1-(S)-[2-(5-fluoro-2,3-dihydro-indol-1-yl)-ethylcarbamoyl]-ethyl}-propionamide] |
| < 100 | C[C@@H](CNc1ccc(OC(F)(F)F)cc1)NC(=O)[C@H](CC1CCCCC1)NC(=O)c1cnn(-c2ccc(F)cc2)c1 [Compound 142, 1-(4-Fluoro-phenyl)-1H-pyrazole-4-carboxylic acid {2-cyclohexyl-1-(S)-[1-(S)-methyl-2-(4-trifluoromethoxy-phenylamino)-ethylcarbamoyl]-ethyl}-amide] |
| < 100 | C[C@@H](CNc1ccc(OC(F)(F)F)cc1)NC(=O)[C@H](CC1CCCCC1)NC(=O)[C@@H]1CCCO1 [Compound 29, Tetrahydrofuran-2-(S)-carboxylic acid {2-cyclohexyl-1-(S)-[1-(S)-methyl-2-(4-trifluoromethoxy-phenylamino)-ethylcarbamoyl]-ethyl}-amide] |
| < 100 | Cc1nc(C)c(S(=O)(=O)N[C@@H](CC2CCCCC2)C(=O)N[C@@H](C)CN2CCc3cc(F)ccc32)s1 [Compound 210, (S,S)-3-Cyclohexyl-2-(2,4-dimethyl-thiazole-5-sulfonylamino)-N-[2-(5-fluoro-2,3-dihydro-indol-1-yl)-1-methyl-ethyl]-propionamide] |
| < 1000 | CC(=O)N1CCC(Oc2ccc(C(=O)N[C@@H](CC3CCCCC3)C(=O)NCCN3CCc4cc(F)ccc43)cc2)CC1 [Compound 69, 4-(1-Acetyl-piperidin-4-yloxy)-N-(S)-{2-cyclohexyl-1-[2-(5-fluoro-2,3-dihydro-indol-1-yl)-ethylcarbamoyl]-ethyl}-benzamide] |
| < 1000 | C[C@@H](CN1CC(C)(C)c2cc(F)ccc21)NC(=O)[C@H](CC(C)(C)C)NC(=O)C1CCOCC1 [Compound 270, Tetrahydro-pyran-4-carboxylic acid {1-(S)-[2-(5-fluoro-3,3-dimethyl-2,3-dihydro-indol-1-yl)-1-(S)-methyl-ethylcarbamoyl]-3,3-dimethyl-butyl}-amide] |
| < 100 | CC(C)(C)C[C@H](NC(=O)c1ccc(-c2cccc(C(F)(F)F)c2)o1)C(=O)NCCN1CCc2cc(F)ccc21 [Compound 202, N-((S)-1-(2-(5-fluoroindolin-1-yl)ethylcarbamoyl)-3,3-dimethylbutyl)-5-(3-(trifluoromethyl)phenyl)furan-2-carboxamide] |
| < 10000 | Cc1cccc(C(=O)N[C@@H](Cc2ccccc2)C(=O)NC(C)(C)CN2CCc3cc(F)ccc32)c1 [Compound 28, N-{(1S)-[2-(5-Fluoro-2,3-dihydro-indol-1-yl)-1,1-dimethyl-ethylcarbamoyl]-2-phenyl-ethyl}-3-methyl-benzamide] |
| < 100 | CS(=O)(=O)c1ccc(C(=O)N[C@@H](CC2CCCCC2)C(=O)NCCN2CCc3cc(F)ccc32)s1 [Compound 72, 5-Methanesulfonyl-thiophene-2-carboxylic acid (S)-{2-cyclohexyl-1-[2-(5-fluoro-2,3-dihydro-indol-1-yl)-ethylcarbamoyl]-ethyl}-amide] |
| < 10000 | O=C(NCCN1CCc2cc(F)ccc21)[C@H](CC1CCCCC1)NS(=O)(=O)Cc1ccccc1 [Compound 242, (S)-3-Cyclohexyl-N-[2-(5-fluoro-2,3-dihydro-indol-1-yl)-ethyl]-2-phenylmethanesulfonylamino-propionamide] |
| < 100 | Cc1nnc(-c2cccc(S(=O)(=O)N[C@@H](CC3CCCCC3)C(=O)NCCN3CCc4cc(F)ccc43)c2)o1 [Compound 233, (S)-3-Cyclohexyl-N-[2-(5-fluoro-2,3-dihydro-indol-1-yl)-ethyl]-2-[3-(5-methyl-[1,3,4]oxadiazol-2-yl)-benzenesulfonylamino]-propionamide] |
| < 1000 | COc1ccc(NCC(C)NC(=O)C(CCC2CCCCC2)NC(=O)c2cc3ccccc3[nH]2)cc1 (mixture of isomers) [Compound 24] |
| < 100 | COc1ccc(NCC(C)NC(=O)C(CC2CCCCC2)NC(=O)c2cccc(OC)c2)cc1 [Compound 26, N-{2-Cyclohexyl-(1S)-[2-(4-methoxy-phenylamino)-(1R)-methyl-ethylcarbamoyl]-ethyl}-3-methoxy-benzamide] |
| < 100 | C[C@@H](CN1CCc2cc(F)ccc21)NC(=O)[C@H](CC1CCCCC1)NS(=O)(=O)c1ccccc1 [Compound 264, (S,S)-2-Benzenesulfonylamino-3-cyclohexyl-N-[2-(5-fluoro-2,3-dihydro-indol-1-yl)-1-methyl-ethyl]-propionamide] |
| < 10000 | COc1ccc(NC[C@@H](C)NC(=O)[C@H](CCC2CCCCC2)NC(=O)c2cc3ccccc3[nH]2)cc1 [Compound 25, 1H-Indole-2-carboxylic acid {3-cyclohexyl-(1S)-[2-(4-methoxy-phenylamino)-(1R)-methyl-ethylcarbamoyl]-propyl}-amide] |
| < 10000 | COc1ccc(NCCNC(=O)[C@H]2CCCC[C@H]2NC(=O)c2cccc(C)c2)cc1 (relative stereo) [Compound 1, N-{cis-2-[2-(4-Methoxy-phenylamino)-ethylcarbamoyl]-cyclohexyl}-3-methyl-benzamide] |
| < 1000 | CC(C)(C)C[C@H](NC(=O)OCc1ccccc1)C(=O)N[C@@H](CC(=O)OC(C)(C)C)CN1CCc2cc(F)ccc21 [Compound 158, 3-(S)-(2-(S)-Benzyloxycarbonylamino-4,4-dimethyl-pentanoylamino)-4-(5-fluoro-2,3-dihydro-indol-1-yl)-butyric acid tert-butyl ester] |
| < 100 | O=C(NCCN1CCc2cc(F)ccc21)[C@H](CC1CCCCC1)NS(=O)(=O)c1ccc(Cl)s1 [Compound 227, (S)-2-(5-Chloro-thiophene-2-sulfonylamino)-3-cyclohexyl-N-[2-(5-fluoro-2,3-dihydro-indol-1-yl)-ethyl]-propionamide] |

| Structure (SMILES) | Ki [nM] |
| --- | --- |
| CC(C)(C)OC(=O)N[C@@H](CC1CCCCC1)C(=O)N[C@@H](CC(=O)OCc1ccccc1)CN1CCc2cc(F)ccc21 [Compound 261, (S,S)-3-(2-tert-Butoxycarbonylamino-3-cyclohexyl-propionylamino)-4-(5-fluoro-2,3-dihydro-indol-1-yl)-butyric acid benzyl ester] | < 100 |
